Measurements published in patent publication US8193184B2, “Substituted sulphonamides, process for their preparation, pharmaceutical composition comprising thereof and their use” (Unimed Pharma, SPOL, S.R.O., priority 2007, dated 2012).
Several values for one entry are separate records, joined by “and”; a condition that tells them apart may be missing. Equal entries are not always repeated. Structures can show the parent of a compound that is named as a salt.

Columns and labels:
intraocular pressure = experiment: Intraocular pressure changes in vivo after application into the conjunctiva sac (Tono-Pen XL); set-up: species or system rabbit (Chinchilla); conditions: for Measured intraocular pressure values, RE, 0.5 h / Measured intraocular pressure values, RE, 0.5 h, Average / Measured intraocular pressure values, RE, 1 h, Average / Measured intraocular pressure values, RE, 1 h / Measured intraocular pressure values, RE, 4 h, Average / Measured intraocular pressure values, RE, 4 h / Measured intraocular pressure values, RE, 7 h, Average / Measured intraocular pressure values, RE, 7 h / Measured intraocular pressure values, RE, 25 h, Average / Measured intraocular pressure values, RE, 25 h / Measured intraocular pressure values, RE, 31 h, Average / Measured intraocular pressure values, RE, 31 h: treated right eye
Experimental: The basic pharmacologic profile of the compounds of the general formula (I), which was focused on the determination of the intraocular pressure changes, was evaluated in in vivo conditions. In addition to the main potential therapeutic effect, related side responses were also monitored. In the experiments the laboratory animals of chinchilla species were used, because the normotension eye of this animal species provides the best reactivity. Adult male Chinchilla (in the age of one to one and half year), of 2000-3500 g, examined by veterinarian, without disease symptoms, grown under the standard conditions was used as the animal model. The solutions of tested compounds of the general formula (I) were always freshly prepared. The distilled water was used as a control. Measurement apparatus Tono-Pen®XL from Medtronic XOMED was used for measurement of the intraocular pressure. The intraocular pressure values were expressed in mmHg. At the first day of the experiment the solutions of the tested compounds of the general formula (I) were applied twice a day, specifically at 8.00 a.m. and 2.00 p.m. At the second day of the experiment the application was still in the 30th hour (i.e. at the second day at 2.00 p.m.). The solution of each compound was always applied in an amount of 2 drops into the right conjunctiva sac. The left eye served as a control. Into the conjunctiva sac of this eye (left), the same number of drop (2 drops) of distilled water was applied. The distilled water served as placebo. […] Standard requirements were kept in all measurements. The measurements started in the morning at 7.00 a.m. The measurement was accomplished with Tono-Pen® XL apparatus by soft perpendicular touch of the probe to the cornea of the rabbit five times successively. The measurement was accomplished on the both cornea (right and left eyes) before administration of the sample. Thus the normal values of the intraocular pressure for both the right and left eyes were obtained. Then at 8.00 a.m. 2 drops of tested compound were applied in the right eye and 2 drops of the distilled water were applied in the left eye. Further measurements were carried out after half an hour (at 8.30 a.m.), after one hour (at 9.00 a.m.), after four hours (at 12.00), after seven hours (at 3.00 p.m.), after 25 hours (on the second day at 9.00 a.m.) and after 31 hours from the application in the right eye (on the second day at 3.00 p.m). […] Moreover, 2 drops of the tested compound in the right eye and 2 drops of distilled water in the left eye were applied again in the same group of the rabbits in the first day at 2.00 p.m. (i.e. 6 hours after application of the first dose of the compound) and in the second day of the experiment at 2.00 p.m. (i.e. in the 30th hour of the experiment). Thus the changes caused by the repeated administration of the compound can be monitored. For each compound and each concentration 10 independent assays were carried out.

CCN(CC)CCCNC(=O)c1ccc(S(N)(=O)=O)cc1 (as salt: ammonium) [II-4, 4-Sulfamoyl-N—(N,N-diethylaminopropyl)benzamide]
melting point: 122 to 123 °C

NS(=O)(=O)c1ccc(S(=O)(=O)NCCCN2CCOCC2)cc1 [Compound I-6, N-(Morpholinopropyl)benzene-1,4-bis(sulphonamide)]
Measured intraocular pressure values, RE, 0.5 h (intraocular pressure; I-6 2% solution, 2 drops, 0.5 h after application, individual animals n 1-10, RE average before application (N) 12.9): 7 mmHg (2×) and 8 mmHg and 9 mmHg (4×) and 11 mmHg and 12 mmHg and 15 mmHg
Measured intraocular pressure values, RE, 0.5 h, Average (intraocular pressure; I-6 2%, 0.5 h, average of 10, N RE average 12.9): 9.6 mmHg
Measured intraocular pressure values, RE, 1 h, Average (intraocular pressure; I-6 2%, 1 h, average of 10, N RE average 12.9): 10.3 mmHg
Measured intraocular pressure values, RE, 1 h (intraocular pressure; I-6 2%, 1 h, individual animals, N RE average 12.9): 9 mmHg (3×) and 8 mmHg (2×) and 14 mmHg and 11 mmHg and 10 mmHg and 13 mmHg and 12 mmHg
Measured intraocular pressure values, RE, 4 h, Average (intraocular pressure; I-6 2%, 4 h, average of 10, N RE average 12.9): 8.4 mmHg
Measured intraocular pressure values, RE, 4 h (intraocular pressure; I-6 2%, 4 h, individual animals, N RE average 12.9): 6 mmHg and 8 mmHg (3×) and 9 mmHg and 12 mmHg (2×) and 7 mmHg (3×)
Measured intraocular pressure values, RE, 7 h, Average (intraocular pressure; I-6 2%, 7 h (second dose at 6 h), average of 10, N RE average 12.9): 7.3 mmHg
Measured intraocular pressure values, RE, 7 h (intraocular pressure; I-6 2%, 7 h (second dose at 6 h), individual animals, N RE average 12.9): 8 mmHg (3×) and 10 mmHg (2×) and 5 mmHg (2×) and 6 mmHg (2×) and 7 mmHg
Measured intraocular pressure values, RE, 25 h, Average (intraocular pressure; I-6 2%, 25 h, average of 10, N RE average 12.9): 10.7 mmHg
Measured intraocular pressure values, RE, 25 h (intraocular pressure; I-6 2%, 25 h, individual animals, N RE average 12.9): 9 mmHg (4×) and 12 mmHg (4×) and 15 mmHg and 8 mmHg
Measured intraocular pressure values, RE, 31 h, Average (intraocular pressure; I-6 2%, 31 h (dose at 30 h), average of 10, N RE average 12.9): 10.4 mmHg
Measured intraocular pressure values, RE, 31 h (intraocular pressure; I-6 2%, 31 h (dose at 30 h), individual animals, N RE average 12.9): 10 mmHg (2×) and 9 mmHg (3×) and 11 mmHg (2×) and 13 mmHg and 8 mmHg and 14 mmHg
Measured intraocular pressure values, RE, 0.5 h (intraocular pressure; I-6 2.5% solution, 2 drops, 0.5 h, individual animals n 1-10, N RE average 15.3): 11 mmHg (2×) and 10 mmHg (3×) and 12 mmHg (2×) and 9 mmHg (2×) and 16 mmHg
Measured intraocular pressure values, RE, 0.5 h, Average (intraocular pressure; I-6 2.5%, 0.5 h, average of 10, N RE average 15.3): 11 mmHg
Measured intraocular pressure values, RE, 1 h, Average (intraocular pressure; I-6 2.5%, 1 h, average of 10, N RE average 15.3): 10.5 mmHg
Measured intraocular pressure values, RE, 1 h (intraocular pressure; I-6 2.5%, 1 h, individual animals, N RE average 15.3): 10 mmHg (2×) and 9 mmHg (5×) and 13 mmHg and 16 mmHg and 11 mmHg
Measured intraocular pressure values, RE, 4 h, Average (intraocular pressure; I-6 2.5%, 4 h, average of 10, N RE average 15.3): 10.1 mmHg
Measured intraocular pressure values, RE, 4 h (intraocular pressure; I-6 2.5%, 4 h, individual animals, N RE average 15.3): 8 mmHg and 9 mmHg (3×) and 11 mmHg (3×) and 10 mmHg (2×) and 13 mmHg
Measured intraocular pressure values, RE, 7 h, Average (intraocular pressure; I-6 2.5%, 7 h (second dose at 6 h), average of 10, N RE average 15.3): 9.6 mmHg
Measured intraocular pressure values, RE, 7 h (intraocular pressure; I-6 2.5%, 7 h (second dose at 6 h), individual animals, N RE average 15.3): 9 mmHg (4×) and 8 mmHg (2×) and 10 mmHg and 11 mmHg and 16 mmHg and 7 mmHg
Measured intraocular pressure values, RE, 25 h, Average (intraocular pressure; I-6 2.5%, 25 h, average of 10, N RE average 15.3): 13 mmHg
Measured intraocular pressure values, RE, 25 h (intraocular pressure; I-6 2.5%, 25 h, individual animals, N RE average 15.3): 12 mmHg (3×) and 13 mmHg (3×) and 15 mmHg (2×) and 14 mmHg and 11 mmHg
Measured intraocular pressure values, RE, 31 h, Average (intraocular pressure; I-6 2.5%, 31 h (dose at 30 h), average of 10, N RE average 15.3): 11.2 mmHg
Measured intraocular pressure values, RE, 31 h (intraocular pressure; I-6 2.5%, 31 h (dose at 30 h), individual animals, N RE average 15.3): 9 mmHg (4×) and 10 mmHg (2×) and 16 mmHg and 13 mmHg and 15 mmHg and 12 mmHg

NS(=O)(=O)c1ccc(C(=O)NCCCN2CCOCC2)cc1 [II-6, 4-Sulfamoyl-N-(morpholinopropyl)benzamide]
Measured intraocular pressure values, PO, 0.5 h (intraocular pressure; II-6 1% solution, 2 drops, treated right eye (PO), 0.5 h, individual animals n 1-10, N PO average 15.8): 8 mmHg and 11 mmHg (2×) and 10 mmHg (3×) and 9 mmHg (2×) and 14 mmHg (2×)
Measured intraocular pressure values, PO, 0.5 h, Average (intraocular pressure; II-6 1%, treated right eye (PO), 0.5 h, average of 10, N PO average 15.8): 10.6 mmHg
Measured intraocular pressure values, PO, 1 h, Average (intraocular pressure; II-6 1%, treated right eye (PO), 1 h, average of 10, N PO average 15.8): 10.4 mmHg
Measured intraocular pressure values, PO, 1 h (intraocular pressure; II-6 1%, treated right eye (PO), 1 h, individual animals, N PO average 15.8): 7 mmHg and 10 mmHg (3×) and 14 mmHg and 9 mmHg and 8 mmHg and 12 mmHg (3×)
Measured intraocular pressure values, PO, 4 h, Average (intraocular pressure; II-6 1%, treated right eye (PO), 4 h, average of 10, N PO average 15.8): 9.6 mmHg
Measured intraocular pressure values, PO, 4 h (intraocular pressure; II-6 1%, treated right eye (PO), 4 h, individual animals, N PO average 15.8): 12 mmHg and 10 mmHg and 9 mmHg and 11 mmHg (2×) and 8 mmHg (3×) and 6 mmHg and 13 mmHg
Measured intraocular pressure values, PO, 7 h, Average (intraocular pressure; II-6 1%, treated right eye (PO), 7 h (second dose at 6 h), average of 10, N PO average 15.8): 9.1 mmHg
Measured intraocular pressure values, PO, 7 h (intraocular pressure; II-6 1%, treated right eye (PO), 7 h (second dose at 6 h), individual animals, N PO average 15.8): 8 mmHg (2×) and 9 mmHg (3×) and 11 mmHg and 6 mmHg (2×) and 13 mmHg and 12 mmHg
Measured intraocular pressure values, PO, 25 h, Average (intraocular pressure; II-6 1%, treated right eye (PO), 25 h, average of 10, N PO average 15.8): 13.7 mmHg
Measured intraocular pressure values, PO, 25 h (intraocular pressure; II-6 1%, treated right eye (PO), 25 h, individual animals, N PO average 15.8): 13 mmHg (3×) and 16 mmHg (2×) and 18 mmHg and 12 mmHg (4×)
Measured intraocular pressure values, PO, 31 h, Average (intraocular pressure; II-6 1%, treated right eye (PO), 31 h (dose at 30 h), average of 10, N PO average 15.8): 11.1 mmHg
Measured intraocular pressure values, PO, 31 h (intraocular pressure; II-6 1%, treated right eye (PO), 31 h (dose at 30 h), individual animals, N PO average 15.8): 10 mmHg (3×) and 12 mmHg (2×) and 9 mmHg (2×) and 11 mmHg and 14 mmHg (2×)
